Measured values as given in patent publication US7524869B2, “Taxanes having a C10 ester substituent” (Florida State University Research Foundation, Inc., priority 2000, dated 2009).

System: HCT116
Assay: In vitro cytotoxicity measured by the cell colony formation assay
Format: cell-based
Conditions: HCT116 cells, 72 h drug incubation, colonies counted after 7 days; ID50 = drug concentration producing 50% inhibition of colony formation; read-out: IN VITRO ID 50 (nm) HCT116

Row | Compound | IC50 [nM]
1 | CCCC(=O)O[C@H]1C(=O)[C@@]2(C)C([C@H](OC(=O)c3ccccc3)[C@]3(O)C[C@H](OC(=O)[C@H](O)[C@@H](NC(=O)OCC(C)C)c4cccs4)C(C)=C1C3(C)C)[C@]1(OC(C)=O)CO[C@@H]1C[C@@H]2O (some centres unmarked) [Compound 3265] | < 10
2 | CC(=O)O[C@@]12CO[C@@H]1C[C@H](O)[C@@]1(C)C(=O)[C@H](OC(=O)C3CC3)C3=C(C)[C@@H](OC(=O)[C@H](O)[C@@H](NC(=O)c4ccco4)c4cccs4)C[C@@](O)([C@@H](OC(=O)c4ccccc4)C12)C3(C)C (some centres unmarked) [Compound 3297] | < 1
3 | CCCC(=O)O[C@H]1C(=O)[C@@]2(C)C([C@H](OC(=O)c3ccccc3)[C@]3(O)C[C@H](OC(=O)[C@H](O)[C@@H](NC(=O)c4ccco4)c4cccs4)C(C)=C1C3(C)C)[C@]1(OC(C)=O)CO[C@@H]1C[C@@H]2O (some centres unmarked) [Compound 3352] | < 1
4 | CCC(=O)O[C@H]1C(=O)[C@@]2(C)C([C@H](OC(=O)c3ccccc3)[C@]3(O)C[C@H](OC(=O)[C@H](O)[C@@H](NC(=O)OC(C)C)c4cccs4)C(C)=C1C3(C)C)[C@]1(OC(C)=O)CO[C@@H]1C[C@@H]2O (some centres unmarked) [Compound 3361] | < 1
5 | CCOC(=O)N[C@@H](c1cccs1)[C@@H](O)C(=O)O[C@H]1C[C@@]2(O)[C@@H](OC(=O)c3ccccc3)C3[C@](C)(C(=O)[C@H](OC(=O)CC)C(=C1C)C2(C)C)[C@@H](O)C[C@H]1OC[C@@]31OC(C)=O (some centres unmarked) [Compound 3370] | < 1
6 | CCCC(=O)O[C@H]1C(=O)[C@@]2(C)C([C@H](OC(=O)c3ccccc3)[C@]3(O)C[C@H](OC(=O)[C@H](O)[C@@H](NC(=O)c4cccs4)c4cccs4)C(C)=C1C3(C)C)[C@]1(OC(C)=O)CO[C@@H]1C[C@@H]2O (some centres unmarked) [Compound 3408] | < 1
7 | CCCC(=O)O[C@H]1C(=O)[C@@]2(C)C([C@H](OC(=O)c3ccccc3)[C@]3(O)C[C@H](OC(=O)[C@H](O)[C@@H](NC(=O)OC(C)C)c4ccco4)C(C)=C1C3(C)C)[C@]1(OC(C)=O)CO[C@@H]1C[C@@H]2O (some centres unmarked) [Compound 3417] | < 1
8 | CCC(=O)O[C@H]1C(=O)[C@@]2(C)C([C@H](OC(=O)c3ccccc3)[C@]3(O)C[C@H](OC(=O)[C@H](O)[C@@H](NC(=O)c4cccs4)c4cccs4)C(C)=C1C3(C)C)[C@]1(OC(C)=O)CO[C@@H]1C[C@@H]2O (some centres unmarked) [Compound 3425] | < 1
9 | CC(=O)O[C@@]12CO[C@@H]1C[C@H](O)[C@@]1(C)C(=O)[C@H](OC(=O)C3CC3)C3=C(C)[C@@H](OC(=O)[C@H](O)[C@@H](NC(=O)c4cccs4)c4cccs4)C[C@@](O)([C@@H](OC(=O)c4ccccc4)C12)C3(C)C (some centres unmarked) [Compound 3453] | < 1
10 | CCCC(=O)O[C@H]1C(=O)[C@@]2(C)C([C@H](OC(=O)c3ccccc3)[C@]3(O)C[C@H](OC(=O)[C@H](O)[C@@H](NC(=O)c4ccccc4)C4CC4)C(C)=C1C3(C)C)[C@]1(OC(C)=O)CO[C@@H]1C[C@@H]2O (some centres unmarked) [Compound 3482] | < 1
11 | C/C=C/C(=O)N[C@@H](c1cccs1)[C@@H](O)C(=O)O[C@H]1C[C@@]2(O)[C@@H](OC(=O)c3ccccc3)C3[C@](C)(C(=O)[C@H](OC(=O)CC)C(=C1C)C2(C)C)[C@@H](O)C[C@H]1OC[C@@]31OC(C)=O (some centres unmarked) [Compound 3494] | < 1
12 | C/C=C/C(=O)N[C@@H](c1cccs1)[C@@H](O)C(=O)O[C@H]1C[C@@]2(O)[C@@H](OC(=O)c3ccccc3)C3[C@](C)(C(=O)[C@H](OC(=O)C4CC4)C(=C1C)C2(C)C)[C@@H](O)C[C@H]1OC[C@@]31OC(C)=O (some centres unmarked) [Compound 3513] | < 1
13 | CCC(=O)O[C@H]1C(=O)[C@@]2(C)C([C@H](OC(=O)c3ccccc3)[C@]3(O)C[C@H](OC(=O)[C@H](O)[C@@H](NC(=O)OC(C)C)c4ccco4)C(C)=C1C3(C)C)[C@]1(OC(C)=O)CO[C@@H]1C[C@@H]2O (some centres unmarked) [Compound 3522] | < 1
14 | CCOC(=O)N[C@@H](c1ccco1)[C@@H](O)C(=O)O[C@H]1C[C@@]2(O)[C@@H](OC(=O)c3ccccc3)C3[C@](C)(C(=O)[C@H](OC(=O)CC)C(=C1C)C2(C)C)[C@@H](O)C[C@H]1OC[C@@]31OC(C)=O (some centres unmarked) [Compound 3535] | < 1
15 | C/C=C/C(=O)N[C@@H](c1cccs1)[C@@H](O)C(=O)O[C@H]1C[C@@]2(O)[C@@H](OC(=O)c3ccccc3)C3[C@](C)(C(=O)[C@H](OC(=O)CCC)C(=C1C)C2(C)C)[C@@H](O)C[C@H]1OC[C@@]31OC(C)=O (some centres unmarked) [Compound 3595] | < 1
16 | CCC(=O)O[C@H]1C(=O)[C@@]2(C)C([C@H](OC(=O)c3ccccc3)[C@]3(O)C[C@H](OC(=O)[C@H](O)[C@@H](NC(=O)c4cccs4)c4ccco4)C(C)=C1C3(C)C)[C@]1(OC(C)=O)CO[C@@H]1C[C@@H]2O (some centres unmarked) [Compound 3644] | < 1
17 | CCCC(=O)O[C@H]1C(=O)[C@@]2(C)C([C@H](OC(=O)c3ccccc3)[C@]3(O)C[C@H](OC(=O)[C@H](O)[C@@H](NC(=O)c4cccs4)c4ccco4)C(C)=C1C3(C)C)[C@]1(OC(C)=O)CO[C@@H]1C[C@@H]2O (some centres unmarked) [Compound 3656] | < 1
18 | CC(=O)O[C@@]12CO[C@@H]1C[C@H](O)[C@@]1(C)C(=O)[C@H](OC(=O)C3CC3)C3=C(C)[C@@H](OC(=O)[C@H](O)[C@@H](NC(=O)c4cccs4)c4ccco4)C[C@@](O)([C@@H](OC(=O)c4ccccc4)C12)C3(C)C (some centres unmarked) [Compound 3663] | < 1
19 | CCOC(=O)N[C@@H](c1ccco1)[C@@H](O)C(=O)O[C@H]1C[C@@]2(O)[C@@H](OC(=O)c3ccccc3)C3[C@](C)(C(=O)[C@H](OC(=O)C4CC4)C(=C1C)C2(C)C)[C@@H](O)C[C@H]1OC[C@@]31OC(C)=O (some centres unmarked) [Compound 3677] | < 1
20 | CCCC(=O)O[C@H]1C(=O)[C@@]2(C)C([C@H](OC(=O)c3ccccc3)[C@]3(O)C[C@H](OC(=O)[C@H](O)[C@@H](NC(=O)c4ccco4)c4ccco4)C(C)=C1C3(C)C)[C@]1(OC(C)=O)CO[C@@H]1C[C@@H]2O (some centres unmarked) [Compound 3686] | < 1
21 | CCCC(=O)O[C@H]1C(=O)[C@@]2(C)C([C@H](OC(=O)c3ccccc3)[C@]3(O)C[C@H](OC(=O)[C@H](O)[C@@H](NC(=O)OCC)c4ccco4)C(C)=C1C3(C)C)[C@]1(OC(C)=O)CO[C@@H]1C[C@@H]2O (some centres unmarked) [Compound 3693] | < 1
22 | CCC(=O)O[C@H]1C(=O)[C@@]2(C)C([C@H](OC(=O)c3ccccc3)[C@]3(O)C[C@H](OC(=O)[C@H](O)[C@@H](NC(=O)c4ccco4)c4ccco4)C(C)=C1C3(C)C)[C@]1(OC(C)=O)CO[C@@H]1C[C@@H]2O (some centres unmarked) [Compound 3818] | < 1
23 | CC(=O)O[C@@]12CO[C@@H]1C[C@H](O)[C@@]1(C)C(=O)[C@H](OC(=O)C3CC3)C3=C(C)[C@@H](OC(=O)[C@H](O)[C@@H](NC(=O)OC(C)C)c4ccco4)C[C@@](O)([C@@H](OC(=O)c4ccccc4)C12)C3(C)C (some centres unmarked) [Compound 3853] | < 1
24 | CC(=O)O[C@@]12CO[C@@H]1C[C@H](O)[C@@]1(C)C(=O)[C@H](OC(=O)C3CC3)C3=C(C)[C@@H](OC(=O)[C@H](O)[C@@H](NC(=O)c4ccco4)c4ccco4)C[C@@](O)([C@@H](OC(=O)c4ccccc4)C12)C3(C)C (some centres unmarked) [Compound 3866] | < 1
25 | CCCC(=O)O[C@H]1C(=O)[C@@]2(C)C([C@H](OC(=O)c3ccccc3)[C@]3(O)C[C@H](OC(=O)[C@H](O)[C@@H](NC(=O)OC(C)C)c4cccs4)C(C)=C1C3(C)C)[C@]1(OC(C)=O)CO[C@@H]1C[C@@H]2O (some centres unmarked) [Compound 3909] | < 1
26 | CCCC(=O)O[C@H]1C(=O)[C@@]2(C)C([C@H](OC(=O)c3ccccc3)[C@]3(O)C[C@H](OC(=O)[C@H](O)[C@@H](NC(=O)OCC(C)C)c4ccco4)C(C)=C1C3(C)C)[C@]1(OC(C)=O)CO[C@@H]1C[C@@H]2O (some centres unmarked) [Compound 3957] | < 10
